These results are taken from ChEMBL document CHEMBL1909046, “DrugMatrix in vitro pharmacology data”.

Series [1] addresses Kappa-type opioid receptor (Homo sapiens, UniProt P41145). The experiment in a line: DRUGMATRIX: Opiate kappa (OP2, KOP) radioligand binding (ligand: [3H] Diprenorphine). In kind it is cell membranes, HEK293, Membrane. The conditions noted are these: hek293; Not Active = under 50% inhibition at 10 µM.
The target of series [2] is T1, Caspase-1 (Homo sapiens, UniProt P29466).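 Also: Caspase-1 enzyme inhibition assay with a peptide substrate; in other assays of this panel Not Active means under 50% inhibition at 10 µM.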
T1 sequence (P29466 whole entry): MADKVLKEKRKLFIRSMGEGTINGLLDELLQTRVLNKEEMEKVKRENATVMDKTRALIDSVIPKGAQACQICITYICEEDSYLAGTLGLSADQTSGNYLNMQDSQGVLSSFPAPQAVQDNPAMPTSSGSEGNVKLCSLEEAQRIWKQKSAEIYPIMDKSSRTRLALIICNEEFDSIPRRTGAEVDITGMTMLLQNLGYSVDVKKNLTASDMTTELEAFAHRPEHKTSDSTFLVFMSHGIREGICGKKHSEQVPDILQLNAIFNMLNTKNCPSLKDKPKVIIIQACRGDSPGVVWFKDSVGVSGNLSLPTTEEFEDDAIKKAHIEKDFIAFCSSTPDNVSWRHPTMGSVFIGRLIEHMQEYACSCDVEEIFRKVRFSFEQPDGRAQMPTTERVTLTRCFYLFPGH
Details: species or system Escherichia coli.

Series [3] concerns the target T2, Type-2 angiotensin II receptor (Homo sapiens, UniProt P50052). Also: in other assays of this panel Not Active means under 50% inhibition at 10 µM.
T2 sequence (P50052 whole entry): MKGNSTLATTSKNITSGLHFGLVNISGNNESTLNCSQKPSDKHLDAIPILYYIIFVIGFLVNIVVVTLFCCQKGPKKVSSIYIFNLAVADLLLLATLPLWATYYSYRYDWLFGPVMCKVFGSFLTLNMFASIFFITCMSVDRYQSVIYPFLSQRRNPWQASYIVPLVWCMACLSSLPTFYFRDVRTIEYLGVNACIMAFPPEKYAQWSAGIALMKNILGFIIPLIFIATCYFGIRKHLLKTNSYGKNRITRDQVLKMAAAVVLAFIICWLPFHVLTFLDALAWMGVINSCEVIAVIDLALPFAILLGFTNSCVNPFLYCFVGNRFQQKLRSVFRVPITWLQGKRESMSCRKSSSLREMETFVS
In kind it is cell-based. Particulars: cho-k1.

The target in series [4] is Cytochrome P450 2C9 (Homo sapiens, UniProt P11712). The conditions noted are these: bti-tn-5b1-4. Also: in other assays of this panel Not Active means under 50% inhibition at 10 µM.
The target in series [5] is T3, Nitric oxide synthase, inducible (Mus musculus, UniProt P29477).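 Also: inhibition of iNOS enzyme activity measured with L-arginine as substrate; in other assays of this panel Not Active means under 50% inhibition at 10 µM.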
T3 sequence (P29477 whole entry): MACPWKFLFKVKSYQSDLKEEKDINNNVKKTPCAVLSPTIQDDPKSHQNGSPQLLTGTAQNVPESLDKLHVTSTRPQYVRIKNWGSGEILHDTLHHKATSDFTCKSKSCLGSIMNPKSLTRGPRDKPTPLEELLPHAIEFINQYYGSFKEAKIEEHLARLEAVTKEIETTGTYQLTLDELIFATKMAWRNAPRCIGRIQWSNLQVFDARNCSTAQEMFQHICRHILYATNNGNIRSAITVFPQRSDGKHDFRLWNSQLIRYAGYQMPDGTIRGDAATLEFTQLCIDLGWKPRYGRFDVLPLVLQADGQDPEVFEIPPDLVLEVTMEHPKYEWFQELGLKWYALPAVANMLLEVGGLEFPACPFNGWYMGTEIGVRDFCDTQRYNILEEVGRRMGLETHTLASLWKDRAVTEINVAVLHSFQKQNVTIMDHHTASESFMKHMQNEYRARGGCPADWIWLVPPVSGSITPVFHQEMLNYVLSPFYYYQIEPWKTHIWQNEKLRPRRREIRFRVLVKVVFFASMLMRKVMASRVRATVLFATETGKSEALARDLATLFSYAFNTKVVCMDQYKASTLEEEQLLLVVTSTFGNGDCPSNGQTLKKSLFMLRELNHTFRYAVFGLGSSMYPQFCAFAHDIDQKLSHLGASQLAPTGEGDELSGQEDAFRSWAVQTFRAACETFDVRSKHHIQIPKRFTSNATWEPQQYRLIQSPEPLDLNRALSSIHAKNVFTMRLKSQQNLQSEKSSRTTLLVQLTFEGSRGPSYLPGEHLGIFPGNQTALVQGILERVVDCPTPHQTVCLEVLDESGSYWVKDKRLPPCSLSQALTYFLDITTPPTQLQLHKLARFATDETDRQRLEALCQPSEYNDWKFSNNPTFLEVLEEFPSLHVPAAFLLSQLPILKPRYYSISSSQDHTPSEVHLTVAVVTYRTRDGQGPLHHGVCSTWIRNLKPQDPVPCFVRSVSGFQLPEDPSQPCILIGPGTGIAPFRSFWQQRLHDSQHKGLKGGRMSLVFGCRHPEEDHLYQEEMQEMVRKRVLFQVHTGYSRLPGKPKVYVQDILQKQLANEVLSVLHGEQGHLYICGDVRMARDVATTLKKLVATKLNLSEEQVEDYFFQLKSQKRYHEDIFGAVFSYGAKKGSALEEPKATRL
Details: species or system Escherichia coli.

Series [6] concerns the target T4, Alpha-1D adrenergic receptor (Homo sapiens, UniProt P25100). Also: in other assays of this panel Not Active means under 50% inhibition at 10 µM.
T4 sequence (P25100 whole entry): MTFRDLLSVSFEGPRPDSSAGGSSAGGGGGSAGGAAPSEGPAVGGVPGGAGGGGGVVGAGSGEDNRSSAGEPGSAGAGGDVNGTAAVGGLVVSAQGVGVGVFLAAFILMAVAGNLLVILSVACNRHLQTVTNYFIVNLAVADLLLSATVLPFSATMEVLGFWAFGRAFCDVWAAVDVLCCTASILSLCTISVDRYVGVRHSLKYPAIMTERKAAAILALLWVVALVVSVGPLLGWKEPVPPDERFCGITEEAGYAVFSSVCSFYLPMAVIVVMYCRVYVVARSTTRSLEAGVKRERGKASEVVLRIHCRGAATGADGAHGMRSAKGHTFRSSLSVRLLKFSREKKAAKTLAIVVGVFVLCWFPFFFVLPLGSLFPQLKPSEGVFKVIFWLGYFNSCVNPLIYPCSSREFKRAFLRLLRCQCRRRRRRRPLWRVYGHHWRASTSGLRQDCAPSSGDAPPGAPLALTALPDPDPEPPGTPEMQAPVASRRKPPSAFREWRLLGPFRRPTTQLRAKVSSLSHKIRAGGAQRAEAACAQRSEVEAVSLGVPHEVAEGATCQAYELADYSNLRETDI
Type of series: cell membranes, HEK293, Membrane.

Series [7] can be described thus: DRUGMATRIX: Glutamate, NMDA, Agonism radioligand binding (ligand: [3H] CGP-39653). Type of series: cell membranes, Rattus norvegicus, Wistar, Cerebral cortex, Membrane. The conditions noted are these: Not Active = under 50% inhibition at 10 µM.
Series [8] can be described thus: DRUGMATRIX: Phosphodiesterase PDE3 enzyme inhibition (substrate: [3H]cAMP + cAMP). In kind it is tissue-based, Homo sapiens. The conditions noted are these: platelet; Not Active = under 50% inhibition at 10 µM.
A short description of series [9]: DRUGMATRIX: Phorbol Ester radioligand binding (ligand: [3H] PDBu). Type of series: cell membranes, Mus musculus, ICR, Brain, Membrane. The conditions noted are these: Not Active = under 50% inhibition at 10 µM.

Cytochrome P450 2C9, sequence (P11712 whole entry): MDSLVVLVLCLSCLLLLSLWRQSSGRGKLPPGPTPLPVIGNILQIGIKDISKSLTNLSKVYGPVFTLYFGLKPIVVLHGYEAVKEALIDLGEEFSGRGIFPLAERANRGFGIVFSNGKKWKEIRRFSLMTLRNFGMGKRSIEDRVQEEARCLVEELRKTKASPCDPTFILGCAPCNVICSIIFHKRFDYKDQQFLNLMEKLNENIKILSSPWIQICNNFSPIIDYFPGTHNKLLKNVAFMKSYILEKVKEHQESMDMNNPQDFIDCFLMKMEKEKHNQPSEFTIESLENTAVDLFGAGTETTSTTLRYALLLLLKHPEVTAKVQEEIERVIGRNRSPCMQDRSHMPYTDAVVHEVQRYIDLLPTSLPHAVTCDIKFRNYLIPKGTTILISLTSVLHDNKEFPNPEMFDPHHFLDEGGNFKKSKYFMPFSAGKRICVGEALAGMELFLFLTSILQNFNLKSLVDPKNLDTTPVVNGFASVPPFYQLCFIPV
Kappa-type opioid receptor, sequence (P41145 whole entry): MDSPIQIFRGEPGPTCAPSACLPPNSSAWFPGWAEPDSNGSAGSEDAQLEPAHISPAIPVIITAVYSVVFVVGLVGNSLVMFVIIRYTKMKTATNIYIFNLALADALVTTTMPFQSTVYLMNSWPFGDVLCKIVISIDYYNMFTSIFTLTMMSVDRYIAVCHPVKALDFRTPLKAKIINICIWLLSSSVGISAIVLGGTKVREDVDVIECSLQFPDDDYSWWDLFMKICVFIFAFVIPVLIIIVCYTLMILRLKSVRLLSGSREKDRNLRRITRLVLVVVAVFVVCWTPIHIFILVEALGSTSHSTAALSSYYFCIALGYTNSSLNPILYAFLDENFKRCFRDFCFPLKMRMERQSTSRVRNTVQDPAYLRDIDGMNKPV

What is called IC50 is the midpoint of a concentration-inhibition curve. One may read the Ki as a measure of affinity in units of concentration, obtained from inhibition or displacement. On to `CNCCc1ccccn1` [BETAHISTINE], for which the IC50 result in series [1], in series [2], in series [3], in series [4], in series [5] and in series [6] (hek293) was “Not Active” each time. The half-inhibitory concentration (IC50) result in series [7], in series [8] and in series [9] was “Not Active” in each case. Further, the Ki result in series [4], in series [7], in series [8] and in [9] was “Not Active” throughout.
Consider `Clc1cccc(Cl)c1NC1=NCCN1` [CLONIDINE], for which the IC50 entry in series [1] was “Not Active”; in [2] it was “Not Active”; in series [3] it was “Not Active”; in series [4] it was “Not Active”; in series [5] it was “Not Active”; in [6] (read-out: IC50), 1210 nM. For the same compound, the IC50 entry in series [7], in series [8] and in [9] was “Not Active” throughout. Besides, the Ki entry in series [4] was “Not Active”; in series [6] (read-out: Ki), 595 nM; in series [7], “Not Active”; in series [8], “Not Active”; in series [9], “Not Active”.
For the compound `C[C@H](CS)C(=O)N1CCC[C@H]1C(=O)O` [CAPTOPRIL], the IC50 entry in series [1], in series [2], in series [3], in [4], in series [5] and in series [6] (hek293) was “Not Active” each time. The IC50 entry in [7], in series [8] and in [9] was “Not Active” throughout. Moreover, the Ki result in series [4], in series [7], in series [8] and in series [9] was “Not Active” each time.
Take `OC(Cn1cncn1)(Cn1cncn1)c1ccc(F)cc1F` [FLUCONAZOLE]: the IC50 entry in series [1], in [2], in [3], in series [4], in [5] and in series [6] (hek293) was “Not Active” throughout. Also, the IC50 entry in [7], in [8] and in [9] was “Not Active” in each case. Besides, the Ki result in [4], in [7], in series [8] and in series [9] was “Not Active” throughout.
Take `O=C1CC[C@@H](N2C(=O)c3ccccc3C2=O)C(=O)N1`: the half-inhibitory concentration (IC50) entry in series [1], in series [2], in [3], in [4], in [5] and in series [6] (hek293) was “Not Active” each time. Also, the half-maximal inhibitory concentration (IC50) result in series [7], in [8] and in series [9] was “Not Active” each time. In addition, the Ki entry in series [4], in series [7], in [8] and in series [9] was “Not Active” in each case.
